# From patent publication US20230146395A1, “Substituted Pyrimidines and Uses Thereof” (Verge Analytics, Inc., priority 2020, published 2023)
# Counter-ions that a name gives are not always drawn.
# Target: T1, Full length human recombinant PIKFYVE (Homo sapiens, UniProt Q9Y2I7)
# T1 construct: Full length human recombinant PIKFYVE; purchased Carna Biosciences (Kobe, Japan); host or cells: baculovirus expression system
# Test: Inhibition of PIKfyve (microfluidic electrophoresis kinase assay, PI3P/PS substrate)
# Type: biochemical
# Settings: 12 concentrations
# Experimental: Full length human recombinant PIKFYVE expressed in baculovirus expression system as N-terminal GST-fusion protein (265 kDa) was obtained from Carna Biosciences (Kobe, Japan). The kinase substrate was prepared by mixing and sonicating fluorescently-labeled phosphatidylinositol 3-phosphate (PI3P) with phospho-L-serine (PS) at a 1:10 ratio in 50 mM HEPES buffer pH 7.5.
# The kinase reactions were assembled in 384-well plates (Greiner) in a total volume of […] as follows. Kinase protein was pre-diluted in an assay buffer comprising 25 mM HEPES, pH 7.5, 1 mM DTT, 2.5 mM MgCl2, and 2.5 mM MnCl2, and 0.005% Triton X-100, and dispensed into a 384-well plate (10 μL per well). Test compounds were serially pre-diluted in DMSO and added to the protein samples by acoustic dispensing (Labcyte Echo). The concentration of DMSO was equalized to 1% in all samples. All test compounds were tested at 12 concentrations. Apilimod was used as a reference compound and was tested in identical manner in each assay plate. Control samples (0%-inhibition, in the absence of inhibitor, DMSO only) and 100%-inhibition (in the absence of enzyme) were assembled in replicates of four and were used to calculate %-inhibition in the presence of compounds. The reactions were initiated by addition of 10 μL of 2×PI3P/PS substrate supplemented with ATP. The final concentration of enzyme was 2 nM, the final concentration of ATP was […], and the final concentration of PI3P/PS substrate was 1 μM (PI3P). The kinase reactions were allowed to proceed for 3 h at room temperature. Following incubation, the reactions were quenched by addition of […] of termination buffer (100 mM HEPES, pH 7.5, 0.01% Triton X-100, 20 mM EDTA). Terminated plates were analyzed on a microfluidic electrophoresis instrument (Caliper LabChip® 3000, Caliper Life Sciences/Perkin Elmer). The change in the relative fluorescence intensity of the PI(3)P substrate and PI(3,5)P product peaks was measured. The activity in each test sample was determined as the product to sum ratio (PSR): P/(S+P), where P is the peak height of the product, and S is the peak height of the substrate. Percent inhibition (Pinh) was determined using the following equation:
# Pinh=(PSR0% inh−PSRcompound)/(PSR0% inh−PSR100% inh)*100
# in which PSRcompound is the product/sum ratio in the presence of compound, PSR0% inh is the product/sum ratio in the absence of compound, and the PSR100% inh is the product/sum ratio in the absence of the enzyme.
# T1 sequence (Q9Y2I7 whole entry): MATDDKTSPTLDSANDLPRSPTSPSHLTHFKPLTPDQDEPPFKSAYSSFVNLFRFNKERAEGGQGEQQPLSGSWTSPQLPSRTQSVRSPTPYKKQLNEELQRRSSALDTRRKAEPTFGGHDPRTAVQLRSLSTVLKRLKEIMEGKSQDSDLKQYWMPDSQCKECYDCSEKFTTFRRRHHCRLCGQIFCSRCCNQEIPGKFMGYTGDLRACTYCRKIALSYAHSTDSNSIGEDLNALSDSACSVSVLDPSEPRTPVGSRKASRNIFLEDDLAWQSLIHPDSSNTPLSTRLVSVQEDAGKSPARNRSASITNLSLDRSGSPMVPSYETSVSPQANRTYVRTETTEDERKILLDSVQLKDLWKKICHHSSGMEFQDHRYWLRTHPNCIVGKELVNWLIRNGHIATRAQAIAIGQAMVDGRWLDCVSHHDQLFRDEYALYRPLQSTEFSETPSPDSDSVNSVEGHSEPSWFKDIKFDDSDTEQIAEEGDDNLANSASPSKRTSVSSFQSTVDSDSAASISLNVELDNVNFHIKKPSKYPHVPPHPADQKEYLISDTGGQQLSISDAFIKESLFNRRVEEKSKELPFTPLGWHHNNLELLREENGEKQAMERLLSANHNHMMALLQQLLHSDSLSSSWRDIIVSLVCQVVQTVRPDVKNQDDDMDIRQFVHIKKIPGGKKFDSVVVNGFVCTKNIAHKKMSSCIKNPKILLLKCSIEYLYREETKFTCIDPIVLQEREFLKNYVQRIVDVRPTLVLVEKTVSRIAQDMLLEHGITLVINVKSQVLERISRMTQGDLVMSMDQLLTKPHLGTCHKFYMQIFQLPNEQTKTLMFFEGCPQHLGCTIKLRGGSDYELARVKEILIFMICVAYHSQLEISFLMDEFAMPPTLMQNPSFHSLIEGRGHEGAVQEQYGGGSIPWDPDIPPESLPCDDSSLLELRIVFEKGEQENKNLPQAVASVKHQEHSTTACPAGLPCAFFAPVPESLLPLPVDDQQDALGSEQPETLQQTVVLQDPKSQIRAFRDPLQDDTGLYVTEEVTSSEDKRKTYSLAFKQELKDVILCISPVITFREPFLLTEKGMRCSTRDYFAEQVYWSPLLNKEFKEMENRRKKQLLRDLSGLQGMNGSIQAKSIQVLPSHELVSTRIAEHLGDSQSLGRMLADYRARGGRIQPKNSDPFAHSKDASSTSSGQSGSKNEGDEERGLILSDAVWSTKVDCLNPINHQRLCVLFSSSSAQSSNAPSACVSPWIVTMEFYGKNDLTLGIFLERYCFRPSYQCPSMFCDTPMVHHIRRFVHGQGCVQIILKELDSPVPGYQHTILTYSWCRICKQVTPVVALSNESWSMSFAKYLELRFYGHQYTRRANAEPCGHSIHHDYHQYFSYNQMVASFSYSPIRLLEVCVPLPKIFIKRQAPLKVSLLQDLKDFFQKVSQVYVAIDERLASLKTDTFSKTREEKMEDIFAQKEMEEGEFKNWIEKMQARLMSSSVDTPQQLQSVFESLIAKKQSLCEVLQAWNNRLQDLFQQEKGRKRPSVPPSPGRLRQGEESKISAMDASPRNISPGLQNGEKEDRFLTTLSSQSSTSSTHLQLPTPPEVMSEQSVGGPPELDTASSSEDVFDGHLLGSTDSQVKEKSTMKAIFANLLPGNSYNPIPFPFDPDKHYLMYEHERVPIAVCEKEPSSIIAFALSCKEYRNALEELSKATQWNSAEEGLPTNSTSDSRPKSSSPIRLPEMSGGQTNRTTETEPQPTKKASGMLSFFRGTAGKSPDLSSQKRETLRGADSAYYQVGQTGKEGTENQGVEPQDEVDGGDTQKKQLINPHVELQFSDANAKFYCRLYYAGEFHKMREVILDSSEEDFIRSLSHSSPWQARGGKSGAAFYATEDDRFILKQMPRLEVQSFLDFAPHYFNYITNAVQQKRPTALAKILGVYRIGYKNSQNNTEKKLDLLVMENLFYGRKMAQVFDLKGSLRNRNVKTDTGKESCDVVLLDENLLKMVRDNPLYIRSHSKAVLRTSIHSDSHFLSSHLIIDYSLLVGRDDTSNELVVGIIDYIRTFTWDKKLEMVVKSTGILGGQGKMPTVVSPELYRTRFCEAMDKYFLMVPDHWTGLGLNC
row,Compound,IC50 [nM]
1,"Cc1cccc(-c2ccn(-c3nc(N4CCOCC4)c4oc(C(N)=O)cc4n3)n2)c1 [Compound 94, 4-morpholino-2-(3-(m-tolyl)-1H-pyrazol-1-yl)furo[3,2-d]pyrimidine-6-carboxamide]",86.7
2,"COc1cccc(-c2ccn(-c3nc(N4CCOCC4)c4oc(-c5ccccn5)cc4n3)n2)c1 [Compound 199, 2-[3-(3-methoxyphenyl)pyrazol-1-yl]-4-morpholino-6-(2-pyridyl)furo[3,2-d]pyrimidine]",36.8
3,CN1CCC(c2cc3nc(Nc4cc(-c5ccncc5)n[nH]4)nc(N4CCOCC4)c3o2)C1 (stereo not shown) [Compound 40],2570
4,"CCN(C)C(=O)c1cc2nc(Nc3cc(-c4ccccc4)[nH]n3)nc(N3CCOCC3)c2o1 [Compound 57, N-ethyl-N-methyl-4-morpholino-2-[(5-phenyl-1H-pyrazol-3-yl)amino]furo[3,2-d]pyrimidine-6-carboxamide, hydrogen chloride]",37
5,"Cc1cccc(-c2cnn(-c3nc(N4CCOCC4)c4oc(-c5ccn(C)n5)cc4n3)c2)c1 [Compound 201, 6-(1-methylpyrazol-3-yl)-4-morpholino-2-[4-(m-tolyl)pyrazol-1-yl]furo[3,2-d]pyrimidine]",0.5
6,c1ccc(-c2cc(Nc3nc(N4CCOCC4)c4oc(CN5CCCCC5)cc4n3)[nH]n2)cc1 [Compound 13],545
7,"CC(C)c1cc(Nc2nc(N3CCOCC3)c3oc(-c4ccncc4)cc3n2)[nH]n1 [Compound 77, N-(5-isopropyl-1H-pyrazol-3-yl)-4-morpholino-6-(pyridin-4-yl)furo[3,2-d]pyrimidin-2-amine, hydrogen chloride]",175
8,"c1cc(-c2cc(Nc3nc(N4CCOCC4)c4occc4n3)[nH]n2)ccn1 [Compound 10, 4-morpholino-N-(3-(pyridin-4-yl)-1H-pyrazol-5-yl)furo[3,2-d]pyrimidin-2-amine hydrochloride]",6220
9,"Fc1cccc(-c2cc(Nc3nc(N4CCOCC4)c4occc4n3)[nH]n2)c1 [Compound 7, N-[5-(3-fluorophenyl)-1H-pyrazol-3-yl]-4-morpholino-furo[3,2-d]pyrimidin-2-amine, hydrogen chloride]",451
10,"Cc1cccc(-c2ccn(-c3nc(N4CCOCC4)c4oc(-c5ccccn5)cc4n3)n2)n1 [Compound 187, 2-[3-(6-methyl-2-pyridyl)pyrazol-1-yl]-4-morpholino-6-(2-pyridyl)furo[3,2-d]pyrimidine]",2390
11,"CNC(=O)c1cc2nc(Nc3cc(C4CC4)n[nH]3)nc(N3CCOCC3)c2o1 [Compound 78, 2-((3-cyclopropyl-1H-pyrazol-5-yl)amino)-N-methyl-4-morpholinofuro[3,2-d]pyrimidine-6-carboxamide hydrochloride]",7850
12,"Cc1cc(-c2ccn(-c3nc(N4CCOCC4)c4oc(-c5ccccn5)cc4n3)n2)ccn1 [Compound 188, 2-[3-(2-methyl-4-pyridyl)pyrazol-1-yl]-4-morpholino-6-(2-pyridyl)furo[3,2-d]pyrimidine]",2830
13,"c1cncc(-c2cc(Nc3nc(N4CCOCC4)c4oc(-c5ccncc5)cc4n3)[nH]n2)c1 [Compound 18, 4-morpholino-6-(4-pyridyl)-N-[5-(3-pyridyl)-1H-pyrazol-3-yl]furo[3,2-d]pyrimidin-2-amine, hydrogen chloride]",144
14,"Cc1cccc(-c2cnn(-c3nc(N4CCOCC4)c4oc(-c5ccncc5)cc4n3)c2)c1 [Compound 42, 4-morpholino-6-(pyridin-4-yl)-2-(4-(m-tolyl)-1H-pyrazol-1-yl)furo[3,2-d]pyrimidine]",9
15,"CN(CC1CC1)C(=O)c1cc2nc(-n3cc(-c4ccccc4)cn3)nc(N3CCOCC3)c2o1 [Compound 66, N-(cyclopropylmethyl)-N-methyl-4-morpholino-2-(4-phenyl-1H-pyrazol-1-yl)furo[3,2-d]pyrimidine-6-carboxamide]",612
16,"c1ccc(-c2ccn(-c3nc(N4CCOCC4)c4oc(-c5ncco5)cc4n3)n2)cc1 [Compound 214, 4-morpholino-6-oxazol-2-yl-2-(3-phenylpyrazol-1-yl)furo[3,2-d]pyrimidine]",44.1
17,"Cc1cc(-c2cc3nc(-n4ccc(-c5ccccc5)n4)nc(N4CCOCC4)c3o2)nn1CCN(C)C [Compound 177, N,N-dimethyl-2-[5-methyl-3-[4-morpholino-2-(3-phenylpyrazol-1-yl)furo[3,2-d]pyrimidin-6-yl]pyrazol-1-yl]ethanamine]",41.3
18,"Cn1ccc(-c2cc3nc(-n4cc(-c5ccccc5)cn4)nc(N4CCOCC4)c3o2)n1 [Compound 190, 6-(1-methylpyrazol-3-yl)-4-morpholino-2-(4-phenylpyrazol-1-yl)furo[3,2-d]pyrimidine]",12.4
19,"CNC(=O)c1cc2nc(Nc3cc(CC4CC4)n[nH]3)nc(N3CCOCC3)c2o1 [Compound 79, 2-((5-(cyclopropylmethyl)-1H-pyrazol-3-yl)amino)-N-methyl-4-morpholinofuro[3,2-d]pyrimidine-6-carboxamide, hydrogen chloride]",≥ 10000
20,"Cc1c(-c2ccccn2)oc2c(N3CCOCC3)nc(-n3ccc(-c4ccccc4)n3)nc12 [Compound 179, 7-methyl-4-morpholino-2-(3-phenyl-1H-pyrazol-1-yl)-6-(pyridin-2-yl)furo[3,2-d]pyrimidine]",≥ 10000
21,"Cc1cccc(-c2ccn(-c3nc(N4CCOCC4)c4oc(-c5ccccn5)c(C)c4n3)n2)c1 [Compound 122, 7-methyl-4-morpholino-6-(pyridin-2-yl)-2-(3-(m-tolyl)-1H-pyrazol-1-yl)furo[3,2-d]pyrimidine]",12.7

# The next lines start with the values.
row,IC50 [nM],Compound
1,107,"c1ccc(-c2cnc(Nc3nc(N4CCOCC4)c4oc(-c5ccncc5)cc4n3)o2)cc1 [Compound 46, 4-morpholino-N-(5-phenyloxazol-2-yl)-6-(4-pyridyl)furo[3,2-d]pyrimidin-2-amine, hydrogen chloride]"
2,145,"c1ccc(-c2cc(Nc3nc(N4CCOCC4)c4occc4n3)n[nH]2)cc1 [Compound 142, 4-morpholino-N-(5-phenyl-1H-pyrazol-3-yl)furo[3,2-d]pyrimidin-2-amine]"
3,10.6,"Cc1ncc(-c2cc3nc(-n4ccc(-c5ccccc5)n4)nc(N4CCOCC4)c3o2)[nH]1 [Compound 213, 6-(2-methyl-1H-imidazol-5-yl)-4-morpholino-2-(3-phenylpyrazol-1-yl)furo[3,2-d]pyrimidine]"
4,60,"O=C(c1cc2nc(Nc3cc(-c4ccccc4)n[nH]3)nc(N3CCOCC3)c2o1)N1CCC1 [Compound 53, azetidin-1-yl(4-morpholino-2-((3-phenyl-1H-pyrazol-5-yl)amino)furo[3,2-d]pyrimidin-6-yl)methanone hydrochloride]"
5,338,"c1cc(-c2cc3nc(Nc4cc(CC5CC5)n[nH]4)nc(N4CCOCC4)c3o2)ccn1 [Compound 69, N-(3-(cyclopropylmethyl)-1H-pyrazol-5-yl)-4-morpholino-6-(pyridin-4-yl)furo[3,2-d]pyrimidin-2-amine hydrochloride]"
6,4010,"O=C(NC1COC1)c1cc2nc(-n3ccc(-c4ccccc4)n3)nc(N3CCOCC3)c2o1 [Compound 175, 4-morpholino-N-(oxetan-3-yl)-2-(3-phenylpyrazol-1-yl)furo[3,2-d]pyrimidine-6-carboxamide]"
7,61.7,"c1ccc(-c2cnn(-c3nc(N4CCOCC4)c4oc(-c5cccnc5)cc4n3)c2)cc1 [Compound 160, 4-morpholino-2-(4-phenylpyrazol-1-yl)-6-(3-pyridyl)furo[3,2-d]pyrimidine]"
8,27,"Cc1cc(-c2cc(Nc3nc(N4CCOCC4)c4oc(-c5ccncc5)cc4n3)[nH]n2)ccn1 [Compound 22, N-(3-(2-methylpyridin-4-yl)-1H-pyrazol-5-yl)-4-morpholino-6-(pyridin-4-yl)furo[3,2-d]pyrimidin-2-amine hydrochloride]"
9,1.4,"Cc1cccc(-c2cnn(-c3nc(N4CCOCC4)c4oc(-c5cc(C)n(CCN6C(=O)C=CC6=O)n5)cc4n3)c2)c1 [Compound 202, 1-[2-[5-methyl-3-[4-morpholino-2-[4-(m-tolyl)pyrazol-1-yl]furo[3,2-d]pyrimidin-6-yl]pyrazol-1-yl]ethyl]pyrrole-2,5-dione]"
10,52,"c1ccc(-c2nnc(Nc3nc(N4CCOCC4)c4oc(-c5ccncc5)cc4n3)o2)cc1 [Compound 47, 4-morpholino-N-(5-phenyl-1,3,4-oxadiazol-2-yl)-6-(4-pyridyl)furo[3,2-d]pyrimidin-2-amine, hydrogen chloride]"
